Tests used:
Assay in all cases: Weeding effect in post-emergence stage
Type in all cases: in vivo
Eleusine indica = settings: for Weeding effect in post-emergence stage, Eleusine indica (level): fresh weight control rate level; for Weeding effect in post-emergence stage, Eleusine indica: level of fresh weight growth control rate
Outline: (§1)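 Pot-grown weeds were sprayed at the 2-3 leaf stage, 2 weeks after sowing, with compound in acetone plus Tween 80 and 1.5 liter/ha methyl oleate emulsifiable concentrate, diluted in water. Doses were 500, 250, 125, 60, 30, 15, 7.5 g/ha. Growth control was scored after 3 weeks in greenhouse; mean of three replicates.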

Alopecurus japonicus = settings: for Weeding effect in post-emergence stage, Alopecurus japonicus (level): fresh weight control rate level; for Weeding effect in post-emergence stage, Alopecurus japonicus: level of fresh weight growth control rate
Outline: as §1

Digitaria sanguinalis = settings: for Weeding effect in post-emergence stage, Digitaria sanguinalis (level): fresh weight control rate level; for Weeding effect in post-emergence stage, Digitaria sanguinalis: level of fresh weight growth control rate
Outline: as §1

Setaria viridis = settings: for Weeding effect in post-emergence stage, Setaria viridis (level): fresh weight control rate level; for Weeding effect in post-emergence stage, Setaria viridis: level of fresh weight growth control rate
Outline: as §1

Abutilon theophrasti = settings: for Weeding effect in post-emergence stage, Abutilon theophrasti (level): fresh weight control rate level; for Weeding effect in post-emergence stage, Abutilon theophrasti: level of fresh weight growth control rate
Outline: as §1

Echinochloa crusgalli = settings: for Weeding effect in post-emergence stage, Echinochloa crusgalli (level): fresh weight control rate level; for Weeding effect in post-emergence stage, Echinochloa crusgalli: level of fresh weight growth control rate
Outline: as §1

Structure (SMILES) | Weeding effect in post-emergence stage, Eleusine indica (Eleusine indica; Dose 15 g/ha) | Weeding effect in post-emergence stage, Alopecurus japonicus (Alopecurus japonicus; Dose 15 g/ha) | Weeding effect in post-emergence stage, Digitaria sanguinalis (Digitaria sanguinalis; Dose 15 g/ha) | Weeding effect in post-emergence stage, Setaria viridis (Setaria viridis; Dose 15 g/ha) | Weeding effect in post-emergence stage, Abutilon theophrasti (Abutilon theophrasti; Dose 15 g/ha) | Weeding effect in post-emergence stage, Echinochloa crusgalli (Echinochloa crusgalli; Dose 15 g/ha) | other results
C[C@@H](O/N=C/c1cc(-n2c(=O)cc(C(F)(F)F)n(C)c2=O)c(F)cc1Cl)C(=O)NS(=O)(=O)CCl [503(R)] |  |  |  |  |  |  | Weeding effect in post-emergence stage, Eleusine indica (level) (Eleusine indica; Dose 15 g/ha): 5 (Level 5: growth control rate is above 85%); Weeding effect in post-emergence stage, Alopecurus japonicus (level) (Alopecurus japonicus; Dose 15 g/ha): 5 (Level 5: growth control rate is above 85%); Weeding effect in post-emergence stage, Digitaria sanguinalis (level) (Digitaria sanguinalis; Dose 15 g/ha): 5 (Level 5: growth control rate is above 85%); Weeding effect in post-emergence stage, Setaria viridis (level) (Setaria viridis; Dose 15 g/ha): 5 (Level 5: growth control rate is above 85%); Weeding effect in post-emergence stage, Abutilon theophrasti (level) (Abutilon theophrasti; Dose 15 g/ha): 5 (Level 5: growth control rate is above 85%); Weeding effect in post-emergence stage, Echinochloa crusgalli (level) (Echinochloa crusgalli; Dose 15 g/ha): 5 (Level 5: growth control rate is above 85%)
COC(=O)C(C)ON=Cc1nc(-n2c(=O)cc(C(F)(F)F)n(C)c2=O)c(F)cc1Cl [504(R)] |  |  |  |  |  |  | Weeding effect in post-emergence stage, Eleusine indica (level) (Eleusine indica; Dose 15 g/ha): 5 (Level 5: growth control rate is above 85%); Weeding effect in post-emergence stage, Alopecurus japonicus (level) (Alopecurus japonicus; Dose 15 g/ha): 5 (Level 5: growth control rate is above 85%); Weeding effect in post-emergence stage, Digitaria sanguinalis (level) (Digitaria sanguinalis; Dose 15 g/ha): 5 (Level 5: growth control rate is above 85%); Weeding effect in post-emergence stage, Setaria viridis (level) (Setaria viridis; Dose 15 g/ha): 5 (Level 5: growth control rate is above 85%); Weeding effect in post-emergence stage, Abutilon theophrasti (level) (Abutilon theophrasti; Dose 15 g/ha): 5 (Level 5: growth control rate is above 85%); Weeding effect in post-emergence stage, Echinochloa crusgalli (level) (Echinochloa crusgalli; Dose 15 g/ha): 5 (Level 5: growth control rate is above 85%)
COC(=O)[C@@H](C)S/N=C/c1cc(-n2c(=O)cc(C(F)(F)F)n(C)c2=O)c(F)cc1Cl [730(R)] |  |  |  |  |  |  | Weeding effect in post-emergence stage, Eleusine indica (level) (Eleusine indica; Dose 15 g/ha): 5 (Level 5: growth control rate is above 85%); Weeding effect in post-emergence stage, Alopecurus japonicus (level) (Alopecurus japonicus; Dose 15 g/ha): 5 (Level 5: growth control rate is above 85%); Weeding effect in post-emergence stage, Digitaria sanguinalis (level) (Digitaria sanguinalis; Dose 15 g/ha): 5 (Level 5: growth control rate is above 85%); Weeding effect in post-emergence stage, Setaria viridis (level) (Setaria viridis; Dose 15 g/ha): 5 (Level 5: growth control rate is above 85%); Weeding effect in post-emergence stage, Abutilon theophrasti (level) (Abutilon theophrasti; Dose 15 g/ha): 5 (Level 5: growth control rate is above 85%); Weeding effect in post-emergence stage, Echinochloa crusgalli (level) (Echinochloa crusgalli; Dose 15 g/ha): 5 (Level 5: growth control rate is above 85%)
COC(=O)[C@@H](C)N/N=C/c1cc(-n2c(=O)cc(C(F)(F)F)n(C)c2=O)c(F)cc1Cl [919(R)] |  |  |  |  |  |  | Weeding effect in post-emergence stage, Eleusine indica (level) (Eleusine indica; Dose 30 g/ha): 5 (Level 5: growth control rate is above 85%); Weeding effect in post-emergence stage, Alopecurus japonicus (level) (Alopecurus japonicus; Dose 30 g/ha): 5 (Level 5: growth control rate is above 85%); Weeding effect in post-emergence stage, Digitaria sanguinalis (level) (Digitaria sanguinalis; Dose 30 g/ha): 5 (Level 5: growth control rate is above 85%); Weeding effect in post-emergence stage, Setaria viridis (level) (Setaria viridis; Dose 30 g/ha): 5 (Level 5: growth control rate is above 85%); Weeding effect in post-emergence stage, Abutilon theophrasti (level) (Abutilon theophrasti; Dose 30 g/ha): 5 (Level 5: growth control rate is above 85%); Weeding effect in post-emergence stage, Echinochloa crusgalli (level) (Echinochloa crusgalli; Dose 30 g/ha): 5 (Level 5: growth control rate is above 85%)
CC(C)=NOC(=O)C(C)O/N=C/c1cc(-n2c(=O)n(C)c(=S)n(C)c2=O)c(F)cc1Cl (stereo not drawn) [Compound 20] | 5 (Level 5: growth control rate is above 85%) | 5 (Level 5: growth control rate is above 85%) | 5 (Level 5: growth control rate is above 85%) | 5 (Level 5: growth control rate is above 85%) | 5 (Level 5: growth control rate is above 85%) | 5 (Level 5: growth control rate is above 85%) | 
CC(O/N=C/c1cc(-n2c(=O)n(C)c(=S)n(C)c2=O)c(F)cc1Cl)C(=O)OCC1CCCO1 (stereo not drawn) [Compound 24] | 5 (Level 5: growth control rate is above 85%) | 5 (Level 5: growth control rate is above 85%) | 5 (Level 5: growth control rate is above 85%) | 5 (Level 5: growth control rate is above 85%) | 5 (Level 5: growth control rate is above 85%) | 5 (Level 5: growth control rate is above 85%) | 
CC(O/N=C/c1cc(-n2c(=O)n(C)c(=S)n(C)c2=O)c(F)cc1Cl)C(=O)OCc1ccco1 (stereo not drawn) [Compound 26] | 5 (Level 5: growth control rate is above 85%) | 5 (Level 5: growth control rate is above 85%) | 5 (Level 5: growth control rate is above 85%) | 5 (Level 5: growth control rate is above 85%) | 5 (Level 5: growth control rate is above 85%) | 5 (Level 5: growth control rate is above 85%) | 
CC(O/N=C/c1cc(-n2c(=O)n(C)c(=S)n(C)c2=O)c(F)cc1Cl)C(=O)OCc1ccccc1 (stereo not drawn) [Compound 42] | 5 (Level 5: growth control rate is above 85%) | 4 (Level 4: growth control rate is greater than or equal to 60% and less than 85%) | 5 (Level 5: growth control rate is above 85%) | 5 (Level 5: growth control rate is above 85%) | 5 (Level 5: growth control rate is above 85%) | 5 (Level 5: growth control rate is above 85%) | 
CC(O/N=C/c1cc(-n2c(=O)n(C)c(=S)n(C)c2=O)c(F)cc1Cl)C(=O)OCc1ccncc1 (stereo not drawn) [Compound 60] | 5 (Level 5: growth control rate is above 85%) | 4 (Level 4: growth control rate is greater than or equal to 60% and less than 85%) | 5 (Level 5: growth control rate is above 85%) | 5 (Level 5: growth control rate is above 85%) | 5 (Level 5: growth control rate is above 85%) | 5 (Level 5: growth control rate is above 85%) | 
CCC(O/N=C/c1cc(-n2c(=O)n(C)c(=S)n(C)c2=O)c(F)cc1Cl)C(=O)OC (stereo not drawn) [Compound 72] | 5 (Level 5: growth control rate is above 85%) | 4 (Level 4: growth control rate is greater than or equal to 60% and less than 85%) | 5 (Level 5: growth control rate is above 85%) | 5 (Level 5: growth control rate is above 85%) | 5 (Level 5: growth control rate is above 85%) | 5 (Level 5: growth control rate is above 85%) | 
CCOC(=O)C(O/N=C/c1cc(-n2c(=O)n(C)c(=S)n(C)c2=O)c(F)cc1Cl)C1CC1 (stereo not drawn) [Compound 76] | 5 (Level 5: growth control rate is above 85%) | 5 (Level 5: growth control rate is above 85%) | 5 (Level 5: growth control rate is above 85%) | 5 (Level 5: growth control rate is above 85%) | 5 (Level 5: growth control rate is above 85%) | 5 (Level 5: growth control rate is above 85%) | 
COCC(O/N=C/c1cc(-n2c(=O)n(C)c(=S)n(C)c2=O)c(F)cc1Cl)C(=O)OC (stereo not drawn) [Compound 80] | 5 (Level 5: growth control rate is above 85%) | 5 (Level 5: growth control rate is above 85%) | 5 (Level 5: growth control rate is above 85%) | 5 (Level 5: growth control rate is above 85%) | 5 (Level 5: growth control rate is above 85%) | 5 (Level 5: growth control rate is above 85%) | 
COC(=O)C(C)O/N=C/c1cc(-n2c(=O)n(C)c(=S)n(C)c2=O)c(F)cc1Br (stereo not drawn) [Compound 83] | 5 (Level 5: growth control rate is above 85%) | 4 (Level 4: growth control rate is greater than or equal to 60% and less than 85%) | 4 (Level 4: growth control rate is greater than or equal to 60% and less than 85%) | 5 (Level 5: growth control rate is above 85%) | 5 (Level 5: growth control rate is above 85%) | 5 (Level 5: growth control rate is above 85%) | 
CCOC(=O)C(C)O/N=C/c1cc(-n2c(=O)n(C)c(=S)n(C)c2=O)c(F)cc1Br (stereo not drawn) [Compound 84] | 5 (Level 5: growth control rate is above 85%) | 4 (Level 4: growth control rate is greater than or equal to 60% and less than 85%) | 4 (Level 4: growth control rate is greater than or equal to 60% and less than 85%) | 5 (Level 5: growth control rate is above 85%) | 5 (Level 5: growth control rate is above 85%) | 5 (Level 5: growth control rate is above 85%) | 
COC(=O)C(C)(C)O/N=C/c1cc(-n2c(=O)n(C)c(=S)n(C)c2=O)c(F)cc1Cl [Compound 189] | 5 (Level 5: growth control rate is above 85%) | 4 (Level 4: growth control rate is greater than or equal to 60% and less than 85%) | 4 (Level 4: growth control rate is greater than or equal to 60% and less than 85%) | 5 (Level 5: growth control rate is above 85%) | 5 (Level 5: growth control rate is above 85%) | 4 (Level 4: growth control rate is greater than or equal to 60% and less than 85%) | 

— US20230111310A1, “CARBOXYLIC ACID DERIVATIVE-SUBSTITUTED IMINO ARYL COMPOUND, PREPARATION METHOD THEREFOR, HERBICIDAL COMPOSITION AND USE THEREOF” (Qingdao Kingagroot Chemical Compound Co., Ltd., priority 2020, published 2023)
